One substance from patent publication US20240252670A1, “ANTIBODY DRUG CONJUGATE, PREPARATION METHOD THEREFOR AND APPLICATION THEREOF” (TSINGHUA UNIVERSITY, priority 2021, published 2024) can be followed below.

The test system of the experiment is B16 melanoma. Nature of the experiment: Anti-tumor activity in B16 melanoma mouse model. The class given is in vivo. The following applies: B16 mice, i.p.; antibody drugs 150 μg, D18 25 μg per mouse; dosing to day 21. The text has this: A. Treatment with ADC HE-S2, single administration of anti-PD-L1 antibody, D18, or anti-PD-L1 THIOMAB, and anti-PD-L1 antibody/D18 combined administration for inhibitory activity against mouse MC38 tumor growth. B. Whole animal survival study. The ordinate of the curve represents the percentage of tumor-bearing mice that remained alive after different days, and the abscissa thereof represents the number of experimental days. C. Treatment with ADC HE-S2, single administration of anti-PD-L1 antibody, D18, or anti-PD-L1 THIOMAB, and anti-PD-L1 antibody/D18 combined administration for inhibitory activity against mouse MC38 tumor growth. Student's t test was used to compare significant differences between the groups, and p<0.001 is represented by ***.
B16 melanoma is a tumor with low PD-L1 level and certain drug resistance to PD-1/PD-L1 blocking treatment. As a result, as expected by the inventors, the inhibitory effect of each drug on B16 melanoma was reduced relative to the MC38 tumor.
Dosage: Antibody drugs, administered 150 μg per mouse for each time, and D18, administered 25 μg per mouse for each time. - means no administration on the day. * Only mice with MC38 tumor model were allowed to be administered until the 24th day, and mice with B16 tumor model were no longer administered after the 21st day.

Consider “anti-PD-L1 THIOMAB: mutant avelumab, light chain V205C (SEQ ID NO: 9), heavy chain SEQ ID NO: 4; pHrodo red labeled in internalization tests”, for which the “inhibitory effect on B16 melanoma” value is “almost comparative to that of the IgG isotype antibody”.
